The test system of the experiment is Beet Armyworm (BAW) (Spodoptera exigua). The experiment in a line: Bioassay on Beet Armyworm (BAW), 128-well diet tray assay. In kind it is in vivo. Particulars: Table 3: Assay Results Part 1. How it is done: Certain molecules disclosed in this document were tested against BAW, CEW and CL using procedures described in the following examples. In the reporting of the results, the “BAW & CEW & CL Rating Table” was used (See Table Section).
Bioassays on BAW (Spodoptera exigua)
Bioassays on BAW were conducted using a 128-well diet tray assay. One to five second instar BAW larvae were placed in each well (3 mL) of the diet tray that had been previously filled with 1 mL of artificial diet to which 50 μg/cm^2 of the test compound (dissolved in 50 μL of 90:10 acetone-water mixture) had been applied (to each of eight wells) and then allowed to dry. Trays were covered with a clear self-adhesive cover, and held at 25° C., 14:10 light-dark for five to seven days. Percent mortality was recorded for the larvae in each well; activity in the eight wells was then averaged. The results are indicated in the tables entitled “Table 3: Assay Results Part 1” and “Table 4: Assay Results Part 2” (See Table Section).
`FC(F)(F)C(/C=C/c1ccc(-n2cncn2)cc1Cl)c1cc(Cl)c(Cl)c(Cl)c1` (stereo not shown) [DC66]: the “BAW Rating” value is listed as “A (50-100)”. The value for `Cc1cc(/C=C/C(c2cc(Cl)cc(Cl)c2)C(F)(F)F)ccc1C(=O)Nc1ccc(Cl)nc1` (stereo not shown) [AC59] was “A (50-100)”. In the case of `Cc1cc(/C=C/C(c2cc(Cl)cc(Cl)c2)C(F)(F)F)ccc1C(=O)NCc1ccoc1` (stereo not shown) [AC20] it was “A (50-100)”. In the case of `O=C(CNC(=O)c1ccc(/C=C/C(c2cc(Cl)c(F)c(Cl)c2)C(F)(F)F)cc1Br)NCC(F)(F)F` (stereo not shown) [AC79, (E)-2-Bromo-4-(3-(3,5-dichloro-4-fluorophenyl)-4,4,4-trifluorobut-1-en-1-yl)-N-(2-oxo-2-((2,2,2-trifluoroethyl)amino)ethyl)benzamide] it was “A (50-100)”. Regarding `COC(/C=C/c1ccc(-n2cncn2)cc1)(c1cc(Cl)cc(Cl)c1)C(F)(F)F` (stereo not shown) [DC70, (E)-1-(4-(3-(3,5-Dichlorophenyl)-4,4,4-trifluoro-3-methoxybut-1-en-1-yl)phenyl)-1H-1,2,4-triazole], the “BAW Rating” value is listed as “A (50-100)”.

Turning to `FC(F)(F)C(/C=C/c1ccc(-n2cncn2)cc1)c1ccccc1` (stereo not shown) [DC3], the “BAW Rating” value was “B (More than 0-Less than 50)”. The value for `O=C(CC(F)(F)F)NCc1ccc(/C=C\C(c2cc(Cl)c(Cl)c(Cl)c2)C(F)(F)F)cc1` (stereo not shown) [CC54, (Z)-3,3,3-Trifluoro-N-(4-(4,4,4-trifluoro-3-(3,4,5-trichlorophenyl)but-1-en-1-yl)benzyl)propanamide] was “A (50-100)”; that for `Cc1cc(/C=C/C(c2cc(Cl)cc(Cl)c2)C(F)(F)F)ccc1C(=O)NCc1ccccc1F` (stereo not shown) [AC9] was “A (50-100)”; that for `Cc1cc(/C=C/C(c2cc(Cl)c(F)c(Cl)c2)C(F)(F)F)ccc1C(=O)NCc1cc(Cl)ccn1` (stereo not shown) [AC77] was “A (50-100)”. For `Cc1cc(/C=C/C(c2cc(Cl)cc(Cl)c2)C(F)(F)F)ccc1C(=O)NCC(=O)N(C)CC(F)(F)F` (stereo not shown) [AC51], the “BAW Rating” value is “A (50-100)”. In the case of `O=C(NC1CSC1)c1ccc(/C=C/C(c2cc(Cl)c(F)c(Cl)c2)C(F)(F)F)cc1F` (stereo not shown) [AC67], the “BAW Rating” value is “A (50-100)”. The value for `Cc1cc(/C=C/C(c2cc(Cl)cc(Cl)c2)C(F)(F)F)ccc1C(=O)NCc1ccccc1` (stereo not shown) [AC11] was “A (50-100)”; that for `O=C(NCc1ccc(/C=C/C(c2cc(Cl)c(Cl)c(Cl)c2)C(F)(F)F)cc1C(F)(F)F)c1cccnc1` (stereo not shown) [CC23] was “A (50-100)”; that for `O=C(NCc1ccc(/C=C/C(c2cc(Cl)c(Cl)c(Cl)c2)C(F)(F)F)cc1C(F)(F)F)C1CC1` (stereo not shown) [CC22] was “A (50-100)”. In the case of `N#Cc1cc(/C=C/C(c2cc(Cl)cc(C(F)(F)F)c2)C(F)(F)F)ccc1-n1cncn1` (stereo not shown) [DC33] it was “A (50-100)”; in that of `O=C(NCc1ccc(/C=C/C(c2cc(Cl)c(F)c(Cl)c2)C(F)(F)F)cc1Cl)C1CC1` (stereo not shown) [CC15], “A (50-100)”; in that of `Cc1cc(/C=C/C(c2cc(Cl)c(F)c(Cl)c2)C(F)(F)F)ccc1C(=O)NCc1ccc(Cl)nc1` (stereo not shown) [AC38], “A (50-100)”. Take `COc1c(Cl)cc(C(/C=C/c2ccc(-n3cncn3)cc2)C(F)(F)F)cc1Cl` (stereo not shown) [DC20]: the “BAW Rating” value is reported as “A (50-100)”.

As to `Cc1cc(/C=C/C(c2cc(Cl)cc(Cl)c2)C(F)(F)F)ccc1C(=O)NNc1ccccc1F` (stereo not shown) [AC17], the “BAW Rating” value is recorded as “A (50-100)”. Turning to `Cc1cc(/C=C/C(c2cc(Cl)cc(Cl)c2)C(F)(F)F)ccc1C(=O)NCc1ncccn1` (stereo not shown) [AC18], the “BAW Rating” value is given as “A (50-100)”. As for `FC(F)(F)C(/C=C/c1ccc(-n2cncn2)c(Cl)c1)c1cc(Cl)cc(Cl)c1` (stereo not shown) [DC50], the “BAW Rating” value is “A (50-100)”. Turning to `O=C(NC1CS(=O)(=O)C1)c1ccc(/C=C/C(c2cc(Cl)c(Cl)c(Cl)c2)C(F)(F)F)cc1C(F)(F)F` (stereo not shown) [AC35], the “BAW Rating” value is on record as “A (50-100)”. In the case of `O=C(NCc1ccc(/C=C/C(c2cc(Cl)cc(Cl)c2)C(F)(F)F)cc1)C1CC1` (stereo not shown) [CC2] it was “A (50-100)”.

For the molecule `Fc1c(Cl)cc(C(/C=C/c2ccc3c(c2)CCC3NCCC(F)(F)F)C(F)(F)F)cc1Cl` (stereo not shown) [BC10, (E)-5-(3-(3,5-Dichloro-4-fluorophenyl)-4,4,4-trifluorobut-1-en-1-yl)-N-(3,3,3-trifluoropropyl)-2,3-dihydro-1H-inden-1-amine], the “BAW Rating” value is reported as “A (50-100)”. The value for `Cc1cc(/C=C/C(c2cc(Cl)cc(Cl)c2)C(F)(F)F)ccc1C(=S)NCc1ccc(Cl)nc1` (stereo not shown) [AC115, (E)-N-((6-Chloropyridin-3-yl)methyl)-4-(3-(3,5-dichlorophenyl)-4,4,4-trifluorobut-1-en-1-yl)-2-methylbenzothioamide] was “A (50-100)”; that for `FC(F)(F)C(/C=C/c1ccc(CNC(=S)C2CC2)c(Cl)c1)c1cc(Cl)c(Cl)c(Cl)c1` (stereo not shown) [CC20] was “A (50-100)”; that for `Cc1cc(/C=C/C(c2cc(Cl)cc(Cl)c2)C(F)(F)F)ccc1C(=O)NCC(=O)NC1CC1` (stereo not shown) [AC40] was “A (50-100)”. The value for `O=C(NCc1ccc(Cl)nc1)c1ccc(/C=C/C(c2cc(Cl)c(F)c(Cl)c2)C(F)(F)F)cc1Br` (stereo not shown) [AC63] was “A (50-100)”. `O=C(CC(F)(F)F)NCc1ccc(/C=C/C(c2cc(Cl)cc(Cl)c2)C(F)(F)F)cc1` (stereo not shown) [CC3]: the “BAW Rating” value is given as “A (50-100)”. The value for `O=C(CNC(=O)c1ccc(/C=C\C(c2cc(Cl)c(Cl)c(Cl)c2)C(F)(F)F)cc1Br)NCC(F)(F)F` (stereo not shown) [AC95, (Z)-2-Bromo-N-(2-oxo-2-((2,2,2-trifluoroethyl)amino)ethyl)-4-(4,4,4-trifluoro-3-(3,4,5-trichlorophenyl)but-1-en-1-yl)benzamide] was “A (50-100)”; that for `FC(F)(F)C(/C=C/c1ccc(-n2cncn2)c(Br)c1)c1cc(Cl)cc(Cl)c1` (stereo not shown) [DC47] was “A (50-100)”; that for `Cc1cc(/C=C/C(c2cc(Cl)c(Cl)c(Cl)c2)C(F)(F)F)ccc1C(=O)NC(C)(C)c1ccccn1` (stereo not shown) [AC27] was “A (50-100)”. The value for `O=C(NC1CSC1)c1ccc(/C=C/C(c2cc(Cl)cc(Cl)c2)C(F)(F)F)cc1F` (stereo not shown) [AC61] was “A (50-100)”. The value for `Cc1cc(/C=C/C(c2cc(Cl)c(Cl)c(Cl)c2)C(F)(F)F)ccc1C(=O)NCC(=O)NCC(F)(F)F` (stereo not shown) [AC78] was “A (50-100)”; that for `O=C(NCc1ccc(/C=C/C(c2cc(Cl)c(Cl)c(Cl)c2)C(F)(F)F)cc1F)C1CC1` (stereo not shown) [CC28] was “A (50-100)”. On to `O=C(CNC(=O)c1ccc(/C=C/C(c2cc(Cl)c(Cl)c(Cl)c2)C(F)(F)F)cc1Cl)NCC(F)(F)F` (stereo not shown) [AC64, (E)-2-Chloro-N-(2-oxo-2-((2,2,2-trifluoroethyl)amino)ethyl)-4-(4,4,4-trifluoro-3-(3,4,5-trichlorophenyl)but-1-en-1-yl)benzamide], for which the “BAW Rating” value is recorded as “A (50-100)”.

As for `Cc1cc(/C=C/C(c2cc(Cl)cc(Cl)c2)C(F)(F)F)ccc1C(=O)NCc1ccc(Cl)nc1` (stereo not shown) [AC7], the “BAW Rating” value was “A (50-100)”. `FC(F)(F)C(/C=C/c1ccc(-n2cncn2)c(Cl)c1)c1cc(Cl)c(Cl)c(Cl)c1` (stereo not shown) [DC49]: the “BAW Rating” value is given as “A (50-100)”. `O=C(CC(F)(F)F)NCc1ccc(/C=C/C(c2cc(Cl)c(Cl)c(Cl)c2)C(F)(F)F)cc1C(F)(F)F` (stereo not shown) [CC24]: the “BAW Rating” value is reported as “A (50-100)”. In the case of `CC(=O)N1CCC(NC(=O)c2ccc(/C=C/C(c3cc(Cl)c(Cl)c(Cl)c3)C(F)(F)F)cc2Br)CC1` (stereo not shown) [AC103, (E)-N-(1-Acetylpiperidin-4-yl)-2-bromo-4-(4,4,4-trifluoro-3-(3,4,5-trichlorophenyl)but-1-en-1-yl)benzamide] it was “A (50-100)”. In the case of `O=C(Cc1ccc(Cl)nc1)NCc1ccc(/C=C/C(c2cc(Cl)c(Cl)c(Cl)c2)C(F)(F)F)cc1Cl` (stereo not shown) [CC14] it was “A (50-100)”. The value for `Cc1cc(/C=C/C(c2cc(Cl)cc(Cl)c2)C(F)(F)F)ccc1C(=O)NCc1ccccn1` (stereo not shown) [AC12] was “A (50-100)”; that for `Cc1cc(/C=C/C(c2cc(Cl)cc(Cl)c2)C(F)(F)F)ccc1C(=O)NCc1ccc(Cl)cc1` (stereo not shown) [AC48] was “A (50-100)”.

For `CN(C)C(=O)NCc1ccc(/C=C/C(c2cc(Cl)c(Cl)c(Cl)c2)C(F)(F)F)cc1Cl` (stereo not shown) [CC36, (E)-3-(2-Chloro-4-(4,4,4-trifluoro-3-(3,4,5-trichlorophenyl)but-1-en-1-yl)benzyl)-1,1-dimethylurea], the “BAW Rating” value is listed as “A (50-100)”. In the case of `O=C(NCc1ccc(/C=C/C(c2cc(Cl)cc(Cl)c2)C(F)(F)F)cc1C(F)(F)F)C1CC1` (stereo not shown) [CC21] it was “A (50-100)”. In the case of `N#Cc1cc(/C=C/C(c2cc(Cl)c(Cl)c(Cl)c2)C(F)(F)F)ccc1-n1cnc(N)n1` (stereo not shown) [DC41, (E)-2-(3-Amino-1H-1,2,4-triazol-1-yl)-5-(4,4,4-trifluoro-3-(3,4,5-trichlorophenyl)but-1-en-1-yl)benzonitrile] it was “A (50-100)”. The value for `N#Cc1cc(/C=C/C(c2cc(Cl)c(Cl)c(Cl)c2)C(F)(F)F)ccc1-n1cnc(N(C(=O)C2CC2)C(=O)C2CC2)n1` (stereo not shown) [DC42, (E)-N-(1-(2-Cyano-4-(4,4,4-trifluoro-3-(3,4,5-trichlorophenyl)but-1-en-1-yl)phenyl)-1H-1,2,4-triazol-3-yl)-N-(cyclopropanecarbonyl)cyclopropanecarboxamide] was “A (50-100)”.

Take `O=C(CNC(=O)c1ccc(/C=C/C(c2cc(Cl)cc(Cl)c2)C(F)(F)F)cc1F)NCC(F)(F)F` (stereo not shown) [AC62]: the “BAW Rating” value is “A (50-100)”.

Regarding `CCNC(=O)NCc1ccc(/C=C/C(c2cc(Cl)cc(Cl)c2)C(F)(F)F)cc1Cl` (stereo not shown) [CC31, (E)-1-(2-Chloro-4-(3-(3,5-dichlorophenyl)-4,4,4-trifluorobut-1-en-1-yl)benzyl)-3-ethylurea], the “BAW Rating” value is listed as “B (More than 0-Less than 50)”.

Source of the values: patent US9212163B2, “Pesticidal compositions and processes related thereto” (Dow AgroSciences LLC, priority 2012, dated 2015).
